Assay results published in US10188737B2, “Stabilized pharmaceutical composition” (ASTELLAS PHARMA INC., priority 2015, dated 2019).

Columns and labels:
[1] = Water activity value of pharmaceutical additives, humidity conditions versus dry state; type: physicochemical; conditions: N = 3; for Water activity value, Opened / Water activity value, Sealed: additive alone; for Water activity value, Opened: 25° C. and 60% RH (opened) for 3 days; for Water activity value, Sealed: in bottles at 25° C. for 3 days in the presence of a desiccant; for Water activity value, Difference: opened minus sealed
Experimental: A water activity meter (AQUA LAB Series 4TE (AQUA LAB)) was used to measure the water activity value of each pharmaceutical composition (including a capsule shell) at 25° C.
Pharmaceutical additives (5000 mg each) used in Examples 4 to 11 and Comparative Examples 1 to 2 were allowed to stand in bottles (30 mL) at 25° C. for 3 days in the presence of a desiccant (2 g), and the water activity value was measured under the same conditions as those of Experimental Example 1. Further, the same samples were allowed to stand in bottles under storage conditions of 25° C. and 60% RH (opened) for 3 days, and the water activity value was measured under the same conditions as those of Experimental Example 1
The difference between the water activity value after the storage in the opened state and the water activity value after the storage in the sealed state is summarized in Table 7.

[2] = Stability of mixture with milled lactose hydrate in capsules, sealed plastic bottles, 25° C. and 60% RH, related substance (HPLC); type: physicochemical; conditions: dimer of compound A (RRT about 1.34)
Experimental: (§1) The amounts of generated related substances were measured by a high performance liquid chromatographic method (an HPLC method). The amount of a related substance is calculated by measuring the peak area of each related substance contained in a pharmaceutical composition by the HPLC method, and dividing the peak area of a dimer of compound A (a related substance detected at a relative retention time of about 1.34) by the total peak area of all related substances, including compound A or a pharmaceutically acceptable salt thereof and the dimer of compound A. • Measurement wavelength: 210 nm • Column: YMC-Triart C18 (4.6 mm×150 mm, 3 μm) • Column temperature: a constant temperature around 40° C. • Mobile phase: A mixed solution of 45 mM perchloric acid aqueous solution and acetonitrile • Flow rate: about 1.2 mL/min. • Injection amount: 10 μg (corresponding to compound A) (Measurement of Water Activity)
After 1.171 mg of compound A monomethanesulfonate and 98.829 mg of milled lactose hydrate (Pharmatose 200 M, DFE Pharma) were mixed, the obtained mixture was filled into hypromellose capsules. […] After the storage, the amount of a related substance (the amount of a dimer of compound A at a relative retention time of about 1.34) was measured under the same conditions as those of Experimental Example 1. […]

[3] = Stability of mixtures with pharmaceutical additives, sealed bottles in aluminum bags, 25° C. or 40° C., related substance (HPLC); type: physicochemical; conditions: dimer of compound A (RRT about 1.34), N = 2, values less than 0.05% (quantitative limit) are reference values
Experimental: as §1
The mixtures obtained in Examples 4 to 11 and Comparative Examples 1 to 2, as well as compound A monomethanesulfonate, were put into plastic bottles. […] After the storage, the amount of a related substance (the amount of a dimer of compound A at a relative retention time of about 1.34) was measured under the same conditions as those of Experimental Example 1. […]

[4] = tested on: epidermal growth factor receptor (EGFR) mutant kinase; conditions: disclosed in Patent literature 1 (WO 2013/108754); cited from earlier work

Row | Water activity value, Opened [1] | Water activity value, Sealed [1] | Water activity value, Difference [1] | Amount of related substance, 25° C. · 60% RH After 1 month [2] | Amount of related substance, 25° C., After 1 month ([3]; 25° C.) | Amount of related substance, 40° C., After 1 month ([3]; 40° C.) | SMILES | inhibitory action on an epidermal growth factor receptor (EGFR) mutant kinase [4]
1 |  |  |  | 0.44% | 0.03% | 0.03% | C=CC(=O)N1CC[C@@H](Oc2nc(Nc3ccc(N4CCC(N5CCN(C)CC5)CC4)cc3)c(C(N)=O)nc2CC)C1.CS(=O)(=O)O [Compound A monomethanesulfonate (alone), 5-{[(3R)-1-acryloylpyrrolidin-3-yl]oxy}-6-ethyl-3-({4-[4-(4-methylpiperazin-1-yl)piperidin-1-yl]phenyl}amino)-pyrazine-2-carboxamide monomethanesulfonate] | 
2 |  |  |  |  |  |  | C=CC(=O)N1CC[C@@H](Oc2nc(Nc3ccc(N4CCC(N5CCN(C)CC5)CC4)cc3)c(C(N)=O)nc2CC)C1 [compound A, 5-{[(3R)-1-Acryloylpyrrolidin-3-yl]oxy}-6-ethyl-3-({4-[4-(4-methylpiperazin-1-yl)piperidin-1-yl]phenyl}amino)-pyrazine-2-carboxamide] | confirmed
3 | 0.43 | 0.38 | 0.05 |  |  |  | OC[C@H]1O[C@@](CO)(O[C@H]2O[C@H](CO)[C@@H](O)[C@H](O)[C@H]2O)[C@@H](O)[C@@H]1O [Sucrose] | 
4 | 0.40 | 0.32 | 0.08 |  |  |  | OC[C@H]1O[C@H](O[C@H]2O[C@H](CO)[C@@H](O)[C@H](O)[C@H]2O)[C@H](O)[C@@H](O)[C@@H]1O [Trehalose] | 
5 | 0.45 | 0.35 | 0.10 |  |  |  | OC[C@@H](O)[C@@H](O)[C@H](O)[C@H](O)CO [Mannitol] | 

Row | SMILES | Water activity value, Opened [1] | Water activity value, Sealed [1] | Water activity value, Difference [1] | Amount of related substance, 25° C. · 60% RH After 1 month [2] | Amount of related substance, 25° C., After 1 month ([3]; 25° C.) | Amount of related substance, 40° C., After 1 month ([3]; 40° C.) | inhibitory action on an epidermal growth factor receptor (EGFR) mutant kinase [4]
6 | O.OC[C@H]1O[C@@H](O[C@H]2[C@H](O)[C@@H](O)C(O)O[C@@H]2CO)[C@H](O)[C@@H](O)[C@H]1O (stereo partly shown) [Lactose hydrate] | 0.46 | 0.30 | 0.16 |  |  |  | 
